Assay results taken from patent publication US8258188B2 (priority 2004, dated 2012).
Where “and” joins values, the source holds several entries; their conditions need not be identical. Equal entries are not always repeated. Where two headings read alike, the source gives them in different places. Marks after values point to notes of the source that are not given here.

Assays:
[1] = 0.6 g punicic acid/100 g food, 38 days, oral
Source text: All specimens were generally labeled with the following information: 1) mouse number; 2) date collected; 3) experiment number; 4) type of solvent; and 5) tissue type.

[2] = tested on: lymph node-derived lymphocytes
Protocol: (§1) cRPMI medium was prepared as shown above. Wells of 96-well flat-bottomed microtiter plates (Becton Dickinson, Lincoln Park, N.J.) were seeded with 2×10^5 mononuclear cells in a total volume of 200 μl per well. Wells contained either concanavalin A (5 μg/ml, Con-A; Sigma), or medium alone (non-stimulated). Plates were incubated for 5 days at 37° C. in 5% CO2 humidified atmosphere. After 5 days, 0.5 μCi of methyl-[^3H] thymidine (specific radioactivity 6.7 Ci mmol^−1; Amersham Life Science, Arlington Heights, Ill.) in 10 μl of medium was added to each well and plates incubated for an additional 20 h. Well contents were harvested onto fiber filters with a PHD cell harvester (Skatron Instruments Inc., Sterling, Va.) and incorporated radioactivity measured by liquid scintillation counting (Beckman Instruments, Schaumburg, Ill.). Samples were run in triplicate and stimulation indices (SI) calculated by dividing counts min^−1 of stimulated wells by counts min^−1 from non-stimulated wells.
(§2) Statistical analysis was performed by analysis of variance (ANOVA). […] Differences with a probability value (P<0.05) were considered statistically significant.

splenocytes = tested on: splenocytes
Protocol: as §1, §2

[3] = tested on: C57BL6 mice fed regular or high fat diets; details: day 78, least squares mean
Source text: (§3) In Western countries, Metabolic Syndrome or Syndrome X (i.e., diabetes, obesity, cardiovascular disease, hypertension and hyperlipidemia) is on a steady rise. […] A total of fifty C57BL6 mice were used in experiment 4. […] These diets are defined as regular diets and were formulated to be isocaloric between treatment groups. […] The high fat diets were also formulated to be isocaloric between treatment groups. The remaining mice within each group (n=5) were fed the regular diets. On day 78 of the experiment, mice were killed, blood was collected and immediately analyzed for fasting glucose concentrations by using the Accu-Check Instant Plus System (Roche Diagnostics Corporation, Indianapolis, Ind.) or stored for subsequent analysis of insulin concentrations in plasma. Abdominal white adipose tissue and interscapular brown adipose tissue were collected, weighed and stored at −80° C. for RNA analyses. Liver, lungs, kidneys, pancreas and heart were examined for macroscopic abnormalities (gross lesions), fixed in phosphate-buffered formalin (10%) and processed as described in experiment 1 for histological evaluation. All specimens were generally labeled with the following information: 1) mouse number; 2) date collected; 3) experiment number; 4) type of solvent; and 5) tissue type.
Serum insulin concentrations were determined by using commercially available enzyme-linked immunosorbent assay kits (Linco Research, St. Charles, Mo.).
Data were analyzed by analysis of variance (ANOVA). The ANOVA was performed by using the general linear model procedure of SAS (SAS Institute Inc., Cary, N.C.) as previously described (Bassaganya-Riera et al. 2004). Differences with probability value (P<0.05) were considered significant.

colonic lymph nodes = details: 0.6 g punicic acid/100 g food, least square mean ± SEM
Protocol: (§4) A total of twenty-two C57BL6 mice were used in Experiment 2. All mice were born on Nov. 23, 2003, weaned on Dec. 16, 2003 and fed the experimental diets from Dec. 19, 2003 to Jan. 15, 2004. […] Mice were weighed on a weekly basis. Mice were euthanized. Blood was collected from each mouse for generating serum, which was stored at −20° C. Thymus, spleen and colonic lymph nodes were harvested, weighed and collected in cRPMI in sterile conditions. Colon and liver specimens were collected in RNA later (Ambion Inc., Austin, Tex.) and frozen at −80° C. for gene expression analysis. Brain, kidney, liver, colon and ileum were also collected in a 10% buffered neutral formalin solution and processed as described in experiment 1 for histological evaluation. The remaining portion of the carcass was stored in 50-mL, conical tubes and frozen at −20° C. for body composition and fatty acid analysis. All specimens were generally labeled with the following information: 1) mouse number; 2) date collected; 3) experiment number; 4) type of solvent; and 5) tissue type. Tissue slides were examined in an Olympus microscope (Olympus America Inc., Dulles, Va.). Images were captured using the FlashBus FBG software (Integral Technologies, Indianapolis, Ind.) and processed in Adobe Photoshop Elements 2.0 (Adobe Systems Inc., San Jose, Calif.).
(§5) Spleens, thymuses and colonic lymph nodes were collected in complete RPMI on ice. Single-cell suspensions were obtained from each tissue by gently disrupting the tissue between two frosted ends of two glass slides on a petri dish containing 3 mL of cRPMI. The single-cell suspension was transferred from the petri dish to a 15-mL polypropylene tube (Fisher, Atlanta, Ga.) and washed by centrifuging in an Eppendorf 5810 R centrifuge (Westbury, N.Y.) at 200×g for 5 minutes at 4° C. The supernatant was discarded by decantation of the tube. The cell pellet was broken by gently tapping the tube against a solid surface. The total numbers of spleenocytes, thymocytes and colonic lymph node lymphocytes in each mouse were enumerated in a Z1 Coulter Single Particle Counter (Miami, Fla.). Briefly, 10-mL of isoton II diluent solution (Beckman Coulter, Miami, Fla.) were added into a counting vial, followed by 40 μL of the cell suspension, 4 drops of Zapaglobin (Beckman Coulter, Miami Fla.), and 10 additional mL of the isoton solution. The volume in which the cells were resuspended was assessed using a 5-mL, sterile pipette. The concentration of cells/mL and the total volume in each tube were used to determine the total amount of cells in each tissue and mouse.
(§6) A description of the uses of flow cytometry was provided in Experiment 1. Splenocyte suspensions were freed of erythrocytes by osmotic lysis (adding 4.5 mL of sterile deionized water for 1 to 2 seconds and then adding 0.5 mL of 10× PBS to make 1× PBS solution). Cells were washed again by centrifuging in an Eppendorf 5810 R centrifuge (Westbury, N.Y.) at 200×g for 5 minutes at 4° C. The supernatant was discarded by decantation of the tube. The cell pellet was broken by gently tapping the tube against a solid surface. FACS buffer (1 mL) was added in each tube. Splenocytes, thymocytes and colonic lymph node-derived mononuclear cells were enumerated in a Z1 Coulter Single Particle Counter (Miami, Fla.), adjusted to 2×10^6 cells/mL. Splenocytes, thymocytes, and colonic lymph nodes were analyzed for expression of CD4, CD8, CD3, TCRalphabeta, TCRgammadelta and CD19 molecules by flow cytometry as previously described (Bassaganya-Riera et al. 2001; Bassaganya-Riera et al. 2002; Bassaganya-Riera et al. 2003). Briefly, a volume of 100 μl of the splenocyte, thymocyte, and colonic lymph node lymphocyte suspension was added in to a round-bottomed microtiter plate (Becton Dickinson, Lincoln Park, N.J.) and stained with 50 μl of the primary antibody solutions in FACS buffer.

spleen = details: 0.6 g punicic acid/100 g food; least square mean ± SEM
Protocol: as §4, §5, §6

thymus = details: 0.6 g punicic acid/100 g food; least square mean ± SEM
Protocol: as §4, §5, §6

[4] = punicic acid-supplemented diets, 78 days
Source text: as §3

[5] = 105-day dietary supplementation, 0.6 g punicic acid/100 g food
[6] = tested on: C57BL6 mice challenged with 2.5% DSS; assay: DSS colitis model of experimental IBD (Experiment 1); format: in vivo
[7] = tested on: C57BL6 mice fed regular or high fat diets; details: day 78, intraperitoneal D-glucose after 14 hours fast
Source text: as §3
A glucose tolerance test was conducted on day 78 of the experiment. Animals were fasted overnight (14 hours).

[8] = tested on: splenocytes stimulated with VR-1469 influenza virus antigens
[9] = concanavalin A 5 μg/ml, cells from mice fed 0.6 g punicic acid/100 g food
[10] = counts of Con A-stimulated wells divided by counts of non-stimulated wells
[11] = non-stimulated, cells from mice fed 0.6 g punicic acid/100 g food
[12] = 7-day challenge with 2.5% DSS, grade 0 to 4, least square mean ± SEM

## CCCC\C=C/C=C/C=C\CCCCCCCC(=O)O [punicic acid]
[1]
  adverse effects throughout the duration of the study: No adverse effects were observed
  macroscopic and histologic analysis of liver, kidneys and brain: no abnormalities
[2]; [9]
  Counts/minute lymph nodes (cRPMI & ConA): 929.06 ± 161.10 Counts/minute
[2]; [10]
  Stimulation index lymph nodes: 22.40 ± 3.61
[2]; [11]
  Counts/minute lymph nodes (cRPMI): 43.12 ± 3.76 Counts/minute
splenocytes; [9]
  Counts/minute spleen (cRPMI & ConA): 1905.27 ± 254.42 Counts/minute
splenocytes; [10]
  Stimulation index spleen: 25.20 ± 3.16
splenocytes; [11]
  Counts/minute spleen (cRPMI): 73.17 ± 10.96 Counts/minute
[3]; High Fat Diets
  Brown adipose tissue (interscapular) weight: 0.124 g
  White adipose tissue (abdominal) weight: 0.830^b g
  plasma fasting Glucose: 219.5^b mg/dL
  plasma fasting Insulin: 1.229^b ng/mL
[3]; Regular Diets
  Brown adipose tissue (interscapular) weight: 0.138 g
  White adipose tissue (abdominal) weight: 0.801^b g
  plasma fasting Glucose: 121.40^b mg/dL
  plasma fasting Insulin: 0.669^b ng/mL
Colonic lymph nodes
  colonic lymph nodes: CD3^+ T cells: 10.24 ± 0.85
  colonic lymph nodes: CD4^+ T cells: 6.65 ± 0.58
  colonic lymph nodes: CD8^+ T cells: 4.53 ± 0.41
  colonic lymph nodes: CD19^+ T cells: 5.98 ± 0.72
  colonic lymph nodes: Lymphocytes: 18.64 ± 1.53 ×10^6/mL
  colonic lymph nodes: TCR αβ^+T cells: 11.78 ± 1.08
  colonic lymph nodes: Weight: 261.66 mg
Colonic lymph nodes; listed as Punicic Acid
  colonic lymph nodes: Weight: 261.66 ± 3.28 mg
spleen
  spleen: CD3^+ T cells: 30.05 ± 1.78
  spleen: CD4^+ T cells: 17.04 ± 1.10
  spleen: CD8^+ T cells: 12.72 ± 0.73
  spleen: CD19^+ T cells: 102.22 ± 5.42
  spleen: TCR αβ^+T cells: 33.12 ± 1.93
  spleen: Total # of lymphocytes: 144.21 ± 7.13 ×10^6/mL
  spleen: Weight: 884.54 ± 3.30 mg
thymus
  thymus: CD4^+ thymocytes: 2.51 ± 0.28
  thymus: CD4^+CD8^+ thymocytes: 63.25 ± 8.73
  thymus: CD8^+ thymocytes: 1.34 ± 0.18
  thymus: Lymphocytes: 69.18 ± 9.56 ×10^6/mL
  thymus: TCR αβ^+ thymocytes: 9.12 ± 1.21
  thymus: Weight: 845.00 ± 4.68 mg
[4]
  fatty liver or enlarged viscera: not observed
[5]
  H&E histology of brain, kidneys, liver, heart and lungs: no microscopic lesions
  adverse effects or clinical signs throughout the study: No negative adverse effects
[6]; 0.6 g punicic acid/100 g food, 2.5% DSS challenge
  start of rectal bleeding, on average: 7 day of the DSS challenge
[6]; 0.6 g punicic acid/100 g food, by day 6 of the 2.5% DSS challenge
  mortality rate associated with colonic inflammation: 0%
[6]; [12]
  Histological score: Crypt Damage: 0.33 ± 0.26
  Histological score: Epithelial Erosion: 0.00 ± 0.00
  Histological score: Inflammatory Cell Infiltration: 0.50 ± 0.17
  Histological score: Metaplasia/Hyperplasia: 0.50 ± 0.28
  Histological score: Mucosal Thickness: 1.83 ± 0.24
  Histological score: Vascular Changes: 0.50 ± 0.35
[6]; diet fed 32 days prior to 7-day DSS challenge (2.5%, wt/vol)
  colitis-associated disease: improved
[6]; following the DSS challenge
  average colon weights: 0.153 grams
  average macroscopic score in colons (scale from 0 to 3): 1.4
  histopathological examination of H&E-stained slides of colon: no major lesions
[7]; high fat diets
  glucose tolerance versus control diet: normalizes impaired glucose tolerance
[7]; regular diets
  glucose tolerance versus control diet: not different
[8]
  Relative Proliferation Index B cells: 1.15 ± 0.63 and 1.16 ± 0.27
  Relative Proliferation Index CD4^+ T cells: 0.68 ± 0.48 and 1.10 ± 0.63
